Key:
[1] = biological target: T1, Histamine H3 receptor (Homo sapiens, UniProt Q9Y5N1); experiment: Displacement of [3H]NAMH from human histamine H3 receptor expressed in CHO cells; type: cell-based
[2] = biological target: Histamine H3 receptor (Rattus norvegicus, UniProt Q9QYN8); experiment: Displacement of [3H]NAMH from rat histamine H3 receptor expressed in CHO cells; type: cell-based
[3] = Clearance in rat at 1 mg/kg, iv; type: ADME, organism-based; parameters: dose 1 mg/kg, route intravenous; settings: in vivo
[4] = Oral bioavailability in rat at 5 mg/kg; type: ADME, organism-based; settings: in vivo
[5] = biological target: T1, Histamine H3 receptor; experiment: Antagonist activity at human histamine H3 receptor expressed in CHO cells assessed as inhibition of RAHM-induced [35S]GTPgammaS binding after 4 hrs by beta liquid scintillation counting; type: functional, cell-based
[6] = system: Rattus norvegicus; experiment: Induction of wake promoting activity in ip dosed Sprague-Dawley rat EEG/EMG model assessed as increase in AUC of wake latency after 4 hrs post dosing; type: functional, organism-based
[7] = Half life in rat at 1 mg/kg, iv; type: ADME, organism-based; parameters: dose 1 mg/kg, route intravenous; settings: in vivo
[8] = Volume of distribution in rat at 1 mg/kg, iv; type: ADME, organism-based; parameters: dose 1 mg/kg, route intravenous; settings: in vivo
[9] = AUC (0 to t) in rat at 5 mg/kg, po; type: ADME, organism-based; parameters: dose 5 mg/kg, route oral; settings: plasma
[10] = Cmax in rat at 5 mg/kg, po; type: ADME, organism-based; parameters: dose 5 mg/kg, route oral; settings: in vivo
[11] = Ratio of drug level in brain to plasma in rat at 5 mg/kg, po; type: ADME, organism-based; parameters: dose 5 mg/kg, route oral; settings: read-out: BPR
[12] = Drug level in rat brain at 10 mg/kg, ip after 1 hr; type: ADME, organism-based; parameters: dose 10 mg/kg, route intraperitoneal; settings: read-out: Drug uptake
[13] = Ratio of drug level in brain to plasma in rat at 10 mg/kg, ip after 1 hr; type: ADME, organism-based; parameters: dose 10 mg/kg, route intraperitoneal; settings: read-out: BPR
[14] = Aqueous solubility of compound at pH 7.4; type: physicochemical
[15] = Half life in human liver microsomes; type: ADME, Microsome
[16] = Half life in mouse liver microsomes; type: ADME, Microsome
[17] = Half life in rat liver microsomes; type: ADME, Microsome
[18] = Half life in monkey liver microsomes; type: ADME, Macaca mulatta, Microsome; settings: rhesus monkey
[19] = biological target: T2, Cytochrome P450 1A2 (Homo sapiens, UniProt P05177); experiment: Inhibition of CYP1A2; type: ADME
T2 sequence (P05177 whole entry): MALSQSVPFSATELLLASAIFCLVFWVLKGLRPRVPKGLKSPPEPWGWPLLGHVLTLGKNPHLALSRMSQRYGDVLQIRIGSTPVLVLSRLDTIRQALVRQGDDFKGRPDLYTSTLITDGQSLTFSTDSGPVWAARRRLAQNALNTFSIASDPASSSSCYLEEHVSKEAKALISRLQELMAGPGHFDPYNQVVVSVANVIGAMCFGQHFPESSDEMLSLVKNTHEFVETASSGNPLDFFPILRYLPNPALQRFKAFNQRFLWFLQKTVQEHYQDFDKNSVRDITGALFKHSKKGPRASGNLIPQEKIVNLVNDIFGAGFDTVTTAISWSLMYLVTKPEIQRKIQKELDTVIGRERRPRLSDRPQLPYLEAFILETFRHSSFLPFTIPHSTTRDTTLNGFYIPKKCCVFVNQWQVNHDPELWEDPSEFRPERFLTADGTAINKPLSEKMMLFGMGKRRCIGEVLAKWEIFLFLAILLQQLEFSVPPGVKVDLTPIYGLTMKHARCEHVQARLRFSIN

[20] = biological target: Cytochrome P450 2C9 (Homo sapiens, UniProt P11712); experiment: Inhibition of CYP2C9; type: ADME
[21] = biological target: Cytochrome P450 2C19 (Homo sapiens, UniProt P33261); experiment: Inhibition of CYP2C19; type: ADME
[22] = biological target: Cytochrome P450 2D6 (Homo sapiens, UniProt P10635); experiment: Inhibition of CYP2D6; type: ADME
[23] = biological target: Cytochrome P450 3A4 (Homo sapiens, UniProt P08684); experiment: Inhibition of CYP3A4; type: ADME
[24] = system: Rattus norvegicus; experiment: Inhibition of RAMH-induced dipsogenia in ip dosed rat dipsogenia model; type: functional
[25] = system: Rattus norvegicus; experiment: Induction of wake promoting activity in Sprague-Dawley rat EEG/EMG model assessed as AUC of cumulative wake time at 10 mg/kg, ip measured after 4 hrs post dosing (reference value: 114 +/- 9 mins); type: functional; settings: route intraperitoneal
[26] = system: Rattus norvegicus; experiment: Induction of wake promoting activity in Sprague-Dawley rat EEG/EMG model assessed as AUC of cumulative wake time at 30 mg/kg, ip measured after 4 hrs post dosing (reference value: 114 +/- 9 mins); type: functional; settings: route intraperitoneal
[27] = system: Rattus norvegicus; experiment: Induction of wake promoting activity in Sprague-Dawley rat EEG/EMG model assessed as increase of wake latency at 30 mg/kg, ip measured after 4 hrs post dosing; type: functional; settings: route intraperitoneal
[28] = system: Rattus norvegicus; experiment: Induction of wake promoting activity in Sprague-Dawley rat EEG/EMG model assessed as time to maximal cumulative wake surplus at 30 mg/kg, ip measured after 6 hrs post dosing; type: functional; settings: route intraperitoneal
[29] = system: Rattus norvegicus; experiment: Induction of wake promoting activity in Sprague-Dawley rat EEG/EMG model assessed as time for recovered sleep latency per hrat 30 mg/kg, ip measured after 6 to 22 hrs post dosing; type: functional; settings: route intraperitoneal
[30] = system: Rattus norvegicus; experiment: Induction of wake promoting activity in Sprague-Dawley rat EEG/EMG model assessed as retained wake latency at 30 mg/kg, ip measured after 22 hrs post dosing; type: functional; settings: route intraperitoneal
[31] = system: Rattus norvegicus; experiment: Induction of wake promoting activity in Sprague-Dawley rat EEG/EMG model assessed as surplus wake time at 30 mg/kg, ip measured after 22 hrs post dosing; type: functional; settings: route intraperitoneal
[32] = system: Rattus norvegicus; experiment: Induction of wake promoting activity in Sprague-Dawley rat EEG/EMG model assessed as maximum cumulative wake surplus time at 10 mg/kg, ip measured after 3 hrs post dosing; type: functional; settings: route intraperitoneal
[33] = system: Rattus norvegicus; experiment: Induction of wake promoting activity in Sprague-Dawley rat EEG/EMG model assessed as maximum cumulative wake surplus time at 10 mg/kg, ip measured after 22 hrs post dosing; type: functional; settings: route intraperitoneal
[34] = system: Rattus norvegicus; experiment: Induction of wake promoting activity in Sprague-Dawley rat EEG/EMG model assessed as fold increase in wake latency at 30 mg/kg, ip measured after 4 hrs post dosing relative to control; type: functional; settings: route intraperitoneal
[35] = biological target: Histamine H1 receptor (Homo sapiens, UniProt P35367); experiment: Binding affinity to human histamine H1 receptor
[36] = biological target: Histamine H2 receptor (Homo sapiens, UniProt P25021); experiment: Binding affinity to human histamine H2 receptor
[37] = biological target: Histamine H4 receptor (Homo sapiens, UniProt Q9H3N8); experiment: Binding affinity to human histamine H4 receptor
[38] = biological target: T1, Histamine H3 receptor; experiment: Inhibition of basal activity of human histamine H3 receptor expressed in CHO cells assessed as inhibition of RAHM-induced [35S]GTPgammaS binding after 4 hrs by beta liquid scintillation counting; type: functional, cell-based

Sequence of Histamine H3 receptor (Rattus norvegicus, UniProt Q9QYN8) (Q9QYN8 whole entry): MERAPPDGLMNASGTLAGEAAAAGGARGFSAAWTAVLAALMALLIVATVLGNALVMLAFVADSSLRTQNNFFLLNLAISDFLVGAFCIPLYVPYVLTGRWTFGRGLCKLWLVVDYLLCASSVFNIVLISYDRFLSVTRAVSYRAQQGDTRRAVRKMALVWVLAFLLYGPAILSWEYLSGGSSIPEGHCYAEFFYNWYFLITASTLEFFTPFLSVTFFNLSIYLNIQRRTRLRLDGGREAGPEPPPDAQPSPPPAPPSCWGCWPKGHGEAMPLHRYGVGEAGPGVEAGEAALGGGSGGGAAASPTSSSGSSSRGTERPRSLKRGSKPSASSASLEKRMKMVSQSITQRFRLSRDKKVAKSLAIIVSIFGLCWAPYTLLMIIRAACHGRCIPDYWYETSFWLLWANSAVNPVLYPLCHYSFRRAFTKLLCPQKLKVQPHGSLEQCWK
T1 sequence (Q9Y5N1 whole entry): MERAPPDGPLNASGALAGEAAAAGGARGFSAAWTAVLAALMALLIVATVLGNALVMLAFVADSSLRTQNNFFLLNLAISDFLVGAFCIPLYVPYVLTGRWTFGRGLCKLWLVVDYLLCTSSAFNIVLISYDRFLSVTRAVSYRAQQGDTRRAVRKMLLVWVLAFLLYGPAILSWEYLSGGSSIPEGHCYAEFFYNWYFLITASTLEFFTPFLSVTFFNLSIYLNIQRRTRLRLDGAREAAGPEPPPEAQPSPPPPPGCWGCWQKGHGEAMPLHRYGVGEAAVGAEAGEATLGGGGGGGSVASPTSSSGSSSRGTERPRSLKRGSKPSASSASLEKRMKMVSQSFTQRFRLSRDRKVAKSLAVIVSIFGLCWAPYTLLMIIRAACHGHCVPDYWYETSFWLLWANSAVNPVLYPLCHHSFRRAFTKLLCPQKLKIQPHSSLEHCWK
Sequence of Histamine H4 receptor (Q9H3N8 whole entry): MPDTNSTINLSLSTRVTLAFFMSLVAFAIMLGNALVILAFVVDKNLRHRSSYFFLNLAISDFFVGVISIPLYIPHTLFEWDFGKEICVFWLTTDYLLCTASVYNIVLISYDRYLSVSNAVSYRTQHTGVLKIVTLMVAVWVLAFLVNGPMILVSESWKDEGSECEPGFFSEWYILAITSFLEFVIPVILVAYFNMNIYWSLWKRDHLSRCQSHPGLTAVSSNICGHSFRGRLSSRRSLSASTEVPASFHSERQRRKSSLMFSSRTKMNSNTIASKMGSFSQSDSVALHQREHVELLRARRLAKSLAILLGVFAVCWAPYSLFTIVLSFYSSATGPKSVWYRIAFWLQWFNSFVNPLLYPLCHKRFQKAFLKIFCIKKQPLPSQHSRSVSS
Sequence of Cytochrome P450 2C19 (P33261 whole entry): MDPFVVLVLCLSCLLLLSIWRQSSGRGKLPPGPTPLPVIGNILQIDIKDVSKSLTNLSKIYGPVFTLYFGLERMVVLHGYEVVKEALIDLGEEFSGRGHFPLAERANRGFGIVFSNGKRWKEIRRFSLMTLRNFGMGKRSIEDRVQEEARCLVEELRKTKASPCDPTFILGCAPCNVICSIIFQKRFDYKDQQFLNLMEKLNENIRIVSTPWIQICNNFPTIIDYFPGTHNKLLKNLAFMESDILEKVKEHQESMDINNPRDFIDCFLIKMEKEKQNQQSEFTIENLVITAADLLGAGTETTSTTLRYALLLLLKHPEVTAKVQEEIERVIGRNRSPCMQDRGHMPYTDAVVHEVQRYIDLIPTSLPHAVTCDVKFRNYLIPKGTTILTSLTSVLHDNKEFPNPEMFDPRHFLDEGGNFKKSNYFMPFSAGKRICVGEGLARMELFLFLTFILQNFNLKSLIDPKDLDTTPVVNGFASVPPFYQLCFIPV
Sequence of Cytochrome P450 2C9 (P11712 whole entry): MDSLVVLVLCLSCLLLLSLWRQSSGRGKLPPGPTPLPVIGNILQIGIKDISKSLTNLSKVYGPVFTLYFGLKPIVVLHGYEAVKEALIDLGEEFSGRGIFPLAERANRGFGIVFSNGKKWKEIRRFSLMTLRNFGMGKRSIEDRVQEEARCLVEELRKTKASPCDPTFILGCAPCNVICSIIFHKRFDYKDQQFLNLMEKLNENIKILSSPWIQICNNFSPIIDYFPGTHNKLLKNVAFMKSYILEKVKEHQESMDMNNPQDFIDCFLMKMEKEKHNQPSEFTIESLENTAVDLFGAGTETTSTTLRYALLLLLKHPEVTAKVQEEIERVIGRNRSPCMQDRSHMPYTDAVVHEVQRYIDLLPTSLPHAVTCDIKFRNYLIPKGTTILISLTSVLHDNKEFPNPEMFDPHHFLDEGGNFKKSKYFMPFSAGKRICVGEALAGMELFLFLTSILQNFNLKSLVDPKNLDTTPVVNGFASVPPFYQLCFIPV
Sequence of Histamine H1 receptor (P35367 whole entry): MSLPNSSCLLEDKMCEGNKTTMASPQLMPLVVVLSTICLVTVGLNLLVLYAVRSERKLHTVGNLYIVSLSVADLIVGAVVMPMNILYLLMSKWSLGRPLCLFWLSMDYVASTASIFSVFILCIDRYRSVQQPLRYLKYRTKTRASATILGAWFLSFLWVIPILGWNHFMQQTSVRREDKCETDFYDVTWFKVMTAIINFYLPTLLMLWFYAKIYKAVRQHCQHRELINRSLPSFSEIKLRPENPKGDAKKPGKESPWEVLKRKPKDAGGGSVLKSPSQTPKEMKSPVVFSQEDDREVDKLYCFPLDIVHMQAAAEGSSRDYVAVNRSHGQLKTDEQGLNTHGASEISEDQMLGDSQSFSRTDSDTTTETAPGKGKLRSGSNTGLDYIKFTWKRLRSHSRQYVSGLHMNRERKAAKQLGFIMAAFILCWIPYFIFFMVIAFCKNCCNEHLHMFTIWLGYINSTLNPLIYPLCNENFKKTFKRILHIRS
Sequence of Cytochrome P450 2D6 (P10635 whole entry): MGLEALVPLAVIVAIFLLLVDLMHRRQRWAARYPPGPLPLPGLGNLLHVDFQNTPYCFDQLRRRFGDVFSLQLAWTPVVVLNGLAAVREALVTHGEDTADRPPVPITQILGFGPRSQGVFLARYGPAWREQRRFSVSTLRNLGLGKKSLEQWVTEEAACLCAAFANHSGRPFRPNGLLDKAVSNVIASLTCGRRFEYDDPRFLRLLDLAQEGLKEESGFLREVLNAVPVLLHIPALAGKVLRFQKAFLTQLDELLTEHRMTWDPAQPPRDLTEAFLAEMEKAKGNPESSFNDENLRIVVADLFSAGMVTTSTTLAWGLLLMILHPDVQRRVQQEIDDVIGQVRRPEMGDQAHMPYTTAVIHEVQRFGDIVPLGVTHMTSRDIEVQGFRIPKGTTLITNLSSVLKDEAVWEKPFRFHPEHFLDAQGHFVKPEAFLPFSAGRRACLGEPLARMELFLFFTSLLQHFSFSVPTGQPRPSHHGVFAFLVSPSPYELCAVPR
Sequence of Histamine H2 receptor (P25021 whole entry): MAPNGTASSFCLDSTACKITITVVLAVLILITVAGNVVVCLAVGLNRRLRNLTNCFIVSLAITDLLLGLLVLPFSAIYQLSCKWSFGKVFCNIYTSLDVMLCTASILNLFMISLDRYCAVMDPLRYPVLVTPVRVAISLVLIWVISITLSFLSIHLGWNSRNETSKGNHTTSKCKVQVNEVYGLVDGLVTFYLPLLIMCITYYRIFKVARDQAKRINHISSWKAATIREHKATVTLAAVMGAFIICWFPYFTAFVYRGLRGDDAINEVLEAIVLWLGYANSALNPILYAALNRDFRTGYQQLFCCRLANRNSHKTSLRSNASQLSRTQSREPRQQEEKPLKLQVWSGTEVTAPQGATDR
Sequence of Cytochrome P450 3A4 (P08684 whole entry): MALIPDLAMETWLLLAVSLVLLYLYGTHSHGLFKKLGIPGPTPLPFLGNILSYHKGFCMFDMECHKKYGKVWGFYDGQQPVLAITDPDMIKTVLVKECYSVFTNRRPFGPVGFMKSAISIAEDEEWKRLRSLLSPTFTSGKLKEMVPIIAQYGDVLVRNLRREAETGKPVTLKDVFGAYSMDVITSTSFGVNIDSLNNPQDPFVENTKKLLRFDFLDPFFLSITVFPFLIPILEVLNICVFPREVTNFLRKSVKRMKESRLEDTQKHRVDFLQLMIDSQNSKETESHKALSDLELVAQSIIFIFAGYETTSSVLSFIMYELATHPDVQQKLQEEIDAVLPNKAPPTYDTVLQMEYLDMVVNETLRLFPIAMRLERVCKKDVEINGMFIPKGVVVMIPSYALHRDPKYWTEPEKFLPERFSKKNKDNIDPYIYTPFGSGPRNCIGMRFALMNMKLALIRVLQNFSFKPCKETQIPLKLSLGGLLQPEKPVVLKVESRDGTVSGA

`C[C@@H]1CCCN1CCCOc1ccc(-c2ccn(C)c(=O)c2)cc1` gave a Ki [1] of 3.2 nM and a Ki [2] of 12 nM.
For `C[C@@H]1CCCN1CCCOc1ccc(-c2cn(C)c(=O)c3ccccc23)cc1`, the clearance [3] was 42 mL/min/kg, the bioavailability [4] was 8% and the Ki [1] was 0.9 nM. For the same molecule, the Ki [2] was 2.4 nM.
With `C[C@@H]1CCCN1CCCOc1ccc(-c2ccc(=O)[nH]c2)cc1` the clearance [3] was 96 mL/min/kg, the bioavailability [4] was 0% and the Ki [1] was 7.7 nM. For the same molecule, the Ki [2] was 9 nM.
In the case of `C[C@@H]1CCCN1CCCOc1ccc(-c2ccc(=O)n(C)c2)cc1`, the Kb [5] is reported as 0.2 nM, the Activity [6] is reported as “Dose-dependent effect” and the half-life [7] is reported as 84 min. The Vd [8] was 1.4 L/kg, the clearance [3] was 11 mL/min/kg and the AUC(0-t) [9] was 867 ng·h/mL. For the same molecule, the Cmax [10] was 190 ng/mL, the bioavailability [4] was 11% and the Kp [11] was 1.7. For the same molecule, the concentration at 1 h [12] was 2900 nM, the Kp at 1 h [13] was 1.9 and the solubility [14] was over 300 µg/mL. It also gave a half-life [15] of over 40 min, a half-life [16] of over 40 min and a half-life [17] of over 40 min. The half-life [18] was over 40 min, the IC50 [19] was over 30000 nM and the IC50 [20] was over 30000 nM. The IC50 [21] was over 30000 nM, the IC50 [22] was over 30000 nM and the IC50 [23] was over 30000 nM. The ED50 [24] was 0.03 mg/kg, the inhibition [24] was “Dose-dependent effect” and the Time [25] was 160 min. It also gave a Time [26] of 227 min, an Activity [27] of 95% and a Time [28] of 146 min. The Time [29] was 6.3 min, the Activity [30] was 35% and the Time [31] was 51 min. For the same molecule, the Time [32] was 53 min, the Time [33] was 33 min and the “fold change (FC)” value [34] was 2. It also gave a Ki [1] of 0.7 nM, a Ki [2] of 8.5 nM and a Ki [35] of over 10000 nM. For the same molecule, the Ki [36] was over 10000 nM, the Ki [37] was over 10000 nM and the EC50 [38] was 0.7 nM.
`C[C@@H]1CCCN1CCCOc1ccc(-c2cc(-c3ccccc3)c(=O)n(C)c2)cc1` showed a Ki [1] of 3.5 nM and a Ki [2] of 7.9 nM.
`C[C@@H]1CCCN1CCCOc1cccc(-c2ccc(=O)n(C)c2)c1` gave a Ki [1] of 112 nM and a Ki [2] of over 500 nM.
`C[C@@H]1CCCN1CCCOc1ccc(-c2cc(C#N)c(=O)n(C)c2)cc1` showed a Ki [1] of 3.4 nM and a Ki [2] of 3 nM.
In the case of `C[C@@H]1CCCN1CCCOc1ccc(-c2ccc(=O)n(-c3ccc(F)cc3)c2)cc1`, the Ki [1] is reported as 4.7 nM and the Ki [2] is reported as 9.6 nM.
Work on `C[C@@H]1CCCN1CCCOc1ccc(-c2ccc(=O)n(-c3ccccc3)c2)cc1` yielded a clearance [3] of 138 mL/min/kg, a bioavailability [4] of 17% and a Ki [1] of 1.8 nM. For the same molecule, the Ki [2] was 19 nM.
With `C[C@@H]1CCCN1CCCOc1ccc(-c2cccn(C)c2=O)cc1` the Ki [1] was 18 nM and the Ki [2] was 144 nM.
`C[C@@H]1CCCN1CCCOc1ccc(-c2ccc(=O)n(Cc3ccccc3)c2)cc1` gave a clearance [3] of 171 mL/min/kg, a bioavailability [4] of 0% and a Ki [1] of 2 nM. The Ki [2] was 10 nM.
In the case of `C[C@@H]1CCCN1CCCOc1ccc(-c2cccc(=O)n2C)cc1`, the Ki [1] is reported as 4.9 nM and the Ki [2] is reported as 21 nM.

Reference: ChEMBL document CHEMBL1921690, “Synthesis and evaluation of pyridone-phenoxypropyl-R-2-methylpyrrolidine analogues as histamine H3 receptor antagonists” (Bioorg Med Chem Lett, 2011)
